Columns and labels:
[1] = Solubility and pH of saturated solution; assay type: physicochemical
[2] = system: healthy male and female subjects with induced transient insomnia; assay: Induced transient insomnia clinical study (first night effect plus 5-hour phase advance), polysomnography, by PER3 VNTR genotype; assay type: in vivo, human; parameters: greater sleep efficiency over subjects on placebo (full night) / lower sleep efficiency than subjects on placebo (full night) / sleep efficiency higher than in placebo, first third of the night / sleep efficiency higher than in placebo, second third of the night / sleep efficiency lower than in placebo, first third of the night / sleep efficiency lower than in placebo, second third of the night: concentration or dose not given beside the values
Source text: The effect of this polymorphism was investigated with respect to various sleep parameters (latency to persistent sleep, wake after sleep onset, sleep efficiency), which evaluated objectively by polysomnography in healthy subjects treated with (1R-trans)-N-[[2-(2,3-dihydro-4-benzofuranyl)cyclopropyl]methyl]propanamide, or treated with a placebo, in a clinical protocol that models transient insomnia.
Transient insomnia can be induced in a laboratory setting as a result of a “first night effect” in which sleep onset and sleep maintenance are disrupted in normal sleeping adults by sleeping in an unfamiliar surrounding. This model of transient insomnia has been validated in several studies of normal sleeping adults. Insomnia can also be precipitated by other factors such as traveling across multiple time zones (jet lag). This condition can be reproduced in a sleep laboratory by forcing an earlier bedtime (phase advance). The study reported here used both, the first night effect and a 5-hour phase advance component, to increase the likelihood that transient insomnia will be induced. A multi-center, randomized, double-blind, placebo-controlled, parallel study was conducted to investigate the efficacy and safety of a single oral dose of (1R-trans)-N-[[2-(2,3-dihydro-4-benzofuranyl)cyclopropyl]methyl]propanamide (20 mg, 50 mg, and 100 mg) and matching placebo in healthy male and female subjects with induced transient insomnia. […] Latency to Persistent Sleep (LPS), Wake After Sleep Onset (WASO) and sleep efficiency (SE) were evaluated objectively by use of polysomnography.
More than 70% of subjects who enrolled in the clinical trial consented to the optional PG study. From those, 288 were genotyped for the PER3 VNTR polymorphism.

healthy volunteers = assay: Previous tolerability studies in healthy volunteers; assay type: in vivo

In the case of CCC(=O)NC[C@@H]1C[C@H]1c1cccc2c1CCO2 [(1R-trans)-N-[[2-(2,3-dihydro-4-benzofuranyl)cyclopropyl]methyl]propanamide], the “solubility in organic solvents” value ([1]; 95% ethanol, methanol, acetonitrile, ethyl acetate, isopropanol, polyethylene glycols (PEG-300 and PEG-400)) is reported as “very soluble or freely soluble”, the “native pH of a saturated solution in water” value ([1]; saturated solution in water) is reported as 8.5 and the “effect of pH on aqueous solubility” value ([1]; water) is reported as “practically unaffected by pH”. For the same compound, the solubility in water ([1]; water) was “only slightly soluble”, the “shorter LPS period than with placebo” value ([2]; PER3 4/4 and 4/5 genotypes) was 30 min and the “shorter LPS period than with placebo (percent)” value ([2]; PER3 4/4 and 4/5 genotypes) was 56%. The “smaller WASO than with placebo” value ([2]; PER3 4/4 and 4/5 genotypes) was 21 min, the “smaller WASO than with placebo (percent)” value ([2]; PER3 4/4 and 4/5 genotypes) was 16% and the “sleep efficiency higher than in placebo, first third of the night” value ([2]; PER3 4/4 and 4/5 genotypes, first third of night) was 29%. For the same compound, the “greater sleep efficiency over subjects on placebo (full night)” value ([2]; PER3 4/4 and 4/5 genotypes, full night) was 12%, the “sleep efficiency higher than in placebo, second third of the night” value ([2]; PER3 4/4 and 4/5 genotypes, second third of night) was 22.8% and the “longer WASO than with placebo” value ([2]; PER3 5/5 genotype) was 32 min. For the same compound, the “longer WASO than with placebo (percent)” value ([2]; PER3 5/5 genotype) was 32.7%, the “shorter LPS than with placebo” value ([2]; PER3 5/5 genotype) was 8 min and the “shorter LPS than with placebo (percent)” value ([2]; PER3 5/5 genotype) was 27%. The “sleep efficiency lower than in placebo, first third of the night” value ([2]; PER3 5/5 genotype, first third of night) was 7.2%, the “lower sleep efficiency than subjects on placebo (full night)” value ([2]; PER3 5/5 genotype, full night) was 9.5% and the “sleep efficiency lower than in placebo, second third of the night” value ([2]; PER3 5/5 genotype, second third of night) was 3.4%. For the same compound, the “efficacy in improving LPS, WASO, and Sleep Efficiency” value ([2]; single oral dose 20, 50 or 100 mg, induced transient insomnia, vs placebo) was “efficacious”, the “sleep efficiency improvement in the third part of the night” value ([2]; third third of night, vs placebo) was “no improvement” and the “tolerability, multiple doses” value (healthy volunteers; multiple doses (up to 28 days) up to 150 mg) was “well-tolerated”. For the same compound, the “tolerability, single doses” value (healthy volunteers; single doses up to 300 mg) was “well-tolerated”.
